These results are taken from patent US20100239501A1, “GENE SENSITIVE TO BONE/JOINT DISEASE AND USE THEREOF” (RIKEN, priority 2007, published 2010).

The test relates to OA patient-derived fibroblast-like synovial cells (HFLS-OA). As to the kind of experiment: Inflammatory cytokine and MMP gene expression induction by LPA in human OA synovial cells. The test is classed as cell-based. The procedure:
The inflammatory cytokine expression induction reaction of LPA, which is a ligand of EDG2, in OA patient-derived fibroblast-like synovial cells was analyzed. The method used is described below. OA patient-derived fibroblast-like synovial cells (HFLS-OA) were purchased from Cell application Co. The HFLS-OA was cultured using the attached Synoviocyte growth medium. The number of passages for the cells used was 4 or 5. The HFLS-OA was seeded to a 24-well plate at a ratio of 1×10^5 cells/well, and cultured using the attached Synoviocyte growth medium until they became confluent. Twelve hours before performing LPA stimulation, the medium was replaced with Ham's F-12 (Invitrogen) medium containing 0.1% fatty acid free bovine serum albumin (Sigma). In the time-related change analysis, 12 hours after the medium replacement, the cells were stimulated with 10 μM LPA; 0, 1, 2, 4, 8, 12 and 24 hours later, total RNA was extracted using ISOGEN (Nippon Gene), and the amounts expressed of the TNFA, IL1B, and IL6 genes, which are inflammatory cytokine genes, and of the MMP1, MMP3, and MMP13 genes, which are Matrix metalloproteinase (MMP) genes, were quantified by a method in accordance with Example 10 (n=4). In the dose dependency test, 12 hours after the medium replacement, the cells were stimulated with 0, 0.1, 0.3, 1, 3 and 10 μM LPA; 2 hours later, total RNA was extracted using ISOGEN (Nippon Gene), and the amounts expressed of the TNFA, IL1B, and IL6 genes, which are inflammatory cytokine genes, were quantified in the same manner as the above for the time-related change test (n=3). As a result of the time-related change test of inflammatory cytokine genes with LPA stimulation, the amounts of TNFA, IL1B and IL6 expressed rose transiently, with peaks reached 2, 4 and 1 hour later, respectively (FIGS. 8a, b and c). The amounts expressed of the MMP1, MMP3, and MMP13 genes, which are MMP genes, rose transiently, with peaks reached 8, 8 and 4 hours later, respectively (FIGS. 8d, e and f). It is known that in synovial cells, MMP genes have the expression thereof increased by inflammatory cytokines. In this experiment, the rise in the expression of the inflammatory cytokine genes preceded the rise in the expression of the MMP genes; therefore, the rise in the expression of MMP genes with LPA stimulation may be a secondary reaction via an inflammatory cytokine. As a result of the dose dependency test, it was shown that LPA raises the expression of inflammatory cytokine genes dose-dependently (FIGS. 8g, h and i). The amounts expressed of the TNFA and IL1B genes nearly reached a plateau at 1 μM, whereas the expression of the IL6 gene rose dose-dependently up to 10 μM. […] From this finding, it is thought that the inflammatory cytokine gene group induction reaction of LPA is very highly likely to be a reaction mediated mainly by the EDG2 gene.

For `CCCCCCCC/C=C\CCCCCCCC(=O)OC[C@@H](O)COP(=O)(O)O` [LPA, 1-Oleoyl-sn-Glycero-3-Phosphate], the “rise of expression of inflammatory cytokine genes (TNFA, IL1B, IL6)” value (0, 0.1, 0.3, 1, 3 and 10 μM LPA, 2 hours, n=3) is given as “dose-dependently”. Under “10 μM LPA, transient rise, n=4”, the “time of peak of IL1B expression” value turned out to be 4 h, the “time of peak of IL6 expression” value amounted to 1 h, the “time of peak of MMP1 gene expression” value came out at 8 h and the “time of peak of MMP3 gene expression” value worked out at 8 h. Moreover, where the note is “10 μM LPA, transient rise, n=4”, the “time of peak of MMP13 gene expression” value is 4 h and the “time of peak of TNFA expression” value came to 2 h. Under “dose dependency test, 2 hours”, the “LPA concentration at which IL1B gene expression nearly reached a plateau” value was found to be 1 µM, the “LPA concentration at which TNFA gene expression nearly reached a plateau” value came out at 1 µM and the “LPA concentration up to which IL6 gene expression rose dose-dependently” value is recorded as “up to 10 μM”.
